Data reported in the CheMixHub ionic liquid set.

Test: xn = mol fraction of the nth substance listed

CC(=O)c1ccccc1 + CCCC[n+]1ccn(C)c1.F[P-](F)(F)(F)(F)F
100 kPa
Settings | viscosity [mPa·s]
293.15 K, x1 = 0.5999 | 49.3
303.15 K, x1 = 0.2999 | 45
313.15 K, x1 = 0.4973 | 21.6
313.15 K, x1 = 0.5999 | 16.5
323.15 K, x1 = 0.0913 | 30.2
323.15 K, x1 = 0.3908 | 20.1
323.15 K, x1 = 0.697 | 8
323.15 K, x1 = 0.7999 | 6
323.15 K, x1 = 0.95 | 1.89
333.15 K, x1 = 0.0913 | 20.3
333.15 K, x1 = 0.2999 | 17.7
333.15 K, x1 = 0.9002 | 3.48
333.15 K, x1 = 1 | 1.09

CCCC[n+]1ccn(C)c1.O=S(=O)([N-]S(=O)(=O)C(F)(F)F)C(F)(F)F + CCCCCCCO
Settings | viscosity [mPa·s]
298 K, 100 kPa, x1 = 1 | 49.7

CC#N + CCCC[n+]1ccn(C)c1.[Cl-]
Settings | viscosity [mPa·s]
308.15 K, 101 kPa, x1 = 1 | 0.31

CCCC[n+]1ccn(C)c1.F[P-](F)(F)(F)(F)F + CCCC[n+]1ccn(C)c1.O=S(=O)([O-])C(F)(F)F
Settings | viscosity [mPa·s]
318.15 K, 100 kPa, x1 = 1 | 87.7

CC(=O)c1ccccc1 + CC[n+]1ccn(C)c1.F[B-](F)(F)F
100 kPa
Settings | viscosity [mPa·s]
293.15 K, x1 = 0.2999 | 19.7
293.15 K, x1 = 0.4003 | 16
303.15 K, x1 = 0.094 | 16.9
303.15 K, x1 = 0.4989 | 8.9
313.15 K, x1 = 0.8918 | 2.09
313.15 K, x1 = 0.9498 | 1.68
323.15 K, x1 = 0.094 | 9.4
323.15 K, x1 = 0.4003 | 6.3
323.15 K, x1 = 0.4989 | 4.73
333.15 K, x1 = 0.0416 | 9.1
333.15 K, x1 = 0.094 | 7.5
333.15 K, x1 = 0.4003 | 5
333.15 K, x1 = 0.8918 | 1.52
333.15 K, x1 = 0.9498 | 1.23
333.15 K, x1 = 1 | 1.09

CCCC[n+]1ccn(C)c1.F[P-](F)(F)(F)(F)F + NCCO
101 kPa
Settings | electrical conductivity [S/m] | viscosity [mPa·s]
288.15 K, x2 = 0.8022 | 0.1847 | 45
288.15 K, x2 = 0.9028 | 0.1368 | 36
293.15 K, x2 = 0.3052 | 0.222 | 103
293.15 K, x2 = 0.387 | 0.236 | –
293.15 K, x2 = 0.5871 | 0.268 | –
293.15 K, x2 = 0.9592 | 0.1028 | –
298.15 K, x2 = 0 | 0.1851 | 182
298.15 K, x2 = 0.2113 | 0.256 | 92
298.15 K, x2 = 0.3052 | 0.292 | 76
298.15 K, x2 = 0.5352 | 0.337 | –
298.15 K, x2 = 0.8022 | 0.313 | 26
303.15 K, x2 = 0.6984 | 0.434 | 26
308.15 K, x2 = 0.387 | 0.506 | –
308.15 K, x2 = 0.4282 | 0.511 | 35
308.15 K, x2 = 0.4761 | 0.541 | –
313.15 K, x2 = 0.3052 | 0.602 | 35
313.15 K, x2 = 0.4761 | 0.669 | –
313.15 K, x2 = 0.5352 | 0.679 | –
313.15 K, x2 = 0.9592 | 0.25 | –
318.15 K, x2 = 0.3052 | 0.733 | 28
318.15 K, x2 = 0.4282 | 0.773 | 22.1
318.15 K, x2 = 0.4918 | 0.796 | 19.5
323.15 K, x2 = 0 | 0.504 | 48
323.15 K, x2 = 0.3052 | 0.875 | 23.1
323.15 K, x2 = 0.4761 | 0.967 | –
323.15 K, x2 = 0.5352 | 0.977 | –
